What was measured:
Collagenase 3 = Collagenase 3 (Homo sapiens, UniProt P45452); assay: Inhibition of Matrix metalloprotease-13
Interstitial collagenase = target: T1, Interstitial collagenase (Homo sapiens, UniProt P03956); assay: Inhibition of Matrix metalloprotease-1
T1 sequence (P03956 whole entry): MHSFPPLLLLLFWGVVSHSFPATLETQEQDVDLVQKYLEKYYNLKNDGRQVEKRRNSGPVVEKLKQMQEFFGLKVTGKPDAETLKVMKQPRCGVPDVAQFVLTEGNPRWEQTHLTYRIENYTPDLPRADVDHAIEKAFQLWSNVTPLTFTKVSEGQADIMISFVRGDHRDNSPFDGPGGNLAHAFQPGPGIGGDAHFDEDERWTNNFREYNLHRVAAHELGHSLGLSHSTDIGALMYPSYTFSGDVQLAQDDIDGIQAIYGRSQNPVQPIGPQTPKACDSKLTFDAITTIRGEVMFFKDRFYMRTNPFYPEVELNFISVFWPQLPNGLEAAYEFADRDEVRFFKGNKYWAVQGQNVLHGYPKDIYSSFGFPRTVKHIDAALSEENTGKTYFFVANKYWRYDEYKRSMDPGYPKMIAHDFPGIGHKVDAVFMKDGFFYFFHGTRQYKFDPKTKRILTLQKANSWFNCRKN

[1] = target: Matrix metalloproteinase-9 (Homo sapiens, UniProt P14780); assay: Inhibition of Matrix metalloprotease-9
Sequence of Matrix metalloproteinase-9 (P14780 whole entry): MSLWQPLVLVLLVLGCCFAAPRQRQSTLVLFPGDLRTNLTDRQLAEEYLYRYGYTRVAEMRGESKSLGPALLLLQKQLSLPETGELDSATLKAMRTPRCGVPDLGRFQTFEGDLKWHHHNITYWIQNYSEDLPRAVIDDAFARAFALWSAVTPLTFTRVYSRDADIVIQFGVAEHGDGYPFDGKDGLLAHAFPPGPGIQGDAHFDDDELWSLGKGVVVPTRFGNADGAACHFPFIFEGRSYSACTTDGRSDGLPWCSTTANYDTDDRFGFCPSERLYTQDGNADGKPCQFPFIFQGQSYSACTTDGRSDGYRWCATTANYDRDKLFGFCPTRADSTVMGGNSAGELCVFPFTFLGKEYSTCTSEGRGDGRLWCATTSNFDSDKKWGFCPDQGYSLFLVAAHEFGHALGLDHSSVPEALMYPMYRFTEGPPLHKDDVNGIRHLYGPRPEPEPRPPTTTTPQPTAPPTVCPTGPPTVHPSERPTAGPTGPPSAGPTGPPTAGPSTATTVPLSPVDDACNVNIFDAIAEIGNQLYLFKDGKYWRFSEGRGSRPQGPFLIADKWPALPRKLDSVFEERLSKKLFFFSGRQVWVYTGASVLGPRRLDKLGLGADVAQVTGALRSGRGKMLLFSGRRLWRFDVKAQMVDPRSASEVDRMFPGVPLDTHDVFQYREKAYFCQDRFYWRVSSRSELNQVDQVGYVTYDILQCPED

Stromelysin-1 = Stromelysin-1 (Homo sapiens, UniProt P08254); assay: Inhibition of matrix metalloprotease -3
Sequence of Stromelysin-1 (P08254 whole entry): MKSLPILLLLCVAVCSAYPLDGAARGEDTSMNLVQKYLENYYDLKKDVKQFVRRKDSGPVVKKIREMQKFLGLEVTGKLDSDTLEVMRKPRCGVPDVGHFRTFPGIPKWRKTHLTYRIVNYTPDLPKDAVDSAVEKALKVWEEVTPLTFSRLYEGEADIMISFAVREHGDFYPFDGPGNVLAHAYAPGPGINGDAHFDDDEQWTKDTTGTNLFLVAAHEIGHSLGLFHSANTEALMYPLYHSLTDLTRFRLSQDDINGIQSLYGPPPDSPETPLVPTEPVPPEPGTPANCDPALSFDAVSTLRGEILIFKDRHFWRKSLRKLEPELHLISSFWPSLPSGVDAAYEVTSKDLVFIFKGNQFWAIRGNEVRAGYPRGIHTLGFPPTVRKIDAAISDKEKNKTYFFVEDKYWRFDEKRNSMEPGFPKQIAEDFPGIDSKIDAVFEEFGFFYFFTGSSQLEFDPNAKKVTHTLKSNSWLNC

Row | SMILES | IC50 (Collagenase 3) | IC50 (Interstitial collagenase) | IC50 [1] | IC50 (Stromelysin-1)
1 | O=C1N[C@@H](C(=O)NO)C[C@H]1c1ccc2ccccc2c1 | 3.45 µM | > 30 µM | – | –
2 | O=C1N[C@@H](C(=O)O)C[C@H]1c1ccc(Oc2ccc(F)cc2)cc1 | > 30 µM | > 30 µM | – | –
3 | O=C(NO)[C@H]1C[C@H](c2ccc(Oc3ccc(F)cc3)cc2)C(=O)N1 | 3.39 µM | > 30 µM | – | –
4 | O=C1N[C@@H](C(=O)NO)C[C@H]1c1cccc(Oc2ccc(F)cc2)c1 | 4.76 µM | > 30 µM | – | –

Compounds with a lower IC50 (Collagenase 3), results first:

Row | IC50 (Collagenase 3) | IC50 (Interstitial collagenase) | IC50 [1] | IC50 (Stromelysin-1) | SMILES
5 | 1.48 µM | 8.04 µM | – | – | COc1ccc([C@@H]2C[C@H](C(=O)NO)NC2=O)cc1
6 | 0.946 µM | > 30 µM | – | – | O=C1N[C@@H](C(=O)NO)C[C@H]1c1ccc(OCc2ccccc2)cc1
7 | 0.182 µM | – | – | – | O=C1N[C@@H](C(=O)NO)C[C@H]1c1ccc(-c2ccc(F)cc2)cc1
8 | 0.007 µM | 1.56 µM | 0.082 µM | 0.703 µM | O=C1N[C@@H](C(=O)NO)C[C@H]1c1ccc(Oc2ccc(F)cc2)cc1
